The test system of assay [1] is TACE maturation in LoVo NEO cells. The assay is described as follows: TACE maturation in LoVo NEO cells by Western blotting. The class given is cell-based, human. Particulars: 24 hrs, various concentrations, FIG. 5B. From the text:
To assess the involvement of furin in TACE endoproteolytic processing, applicant first used a furin-deficient cell line, the LoVo cells. These are human colon carcinoma cells which have a point mutation in both alleles of the fur gene leading to production of a defective enzyme (reference 46). These furin knock-out cells have been extensively used to study the contribution of furin in a cellular context (references 10, 38 and 47). LoVo cells were transfected with wild type furin and two stable transfectants LoVoFUR1 and LoVoFUR2 and control transfectant LoVoNEO have been generated accordingly to their acquired gentamycin resistance. Cell lysates were assessed by Western blotting for the production of TACE proteolytic fragments in immunoblotting using TACE-specific antibodies (Chemicon International, CA). […]
To define if proprotein convertases other than furin are involved in TACE maturation, LoVo NEO cells were incubated for 24 hrs in the presence of Dec-RVKR-CH2Cl, a synthetic peptide that mimics proprotein recognition site. […] LoVo NEO cells were incubated for 24 hrs in the presence of various concentrations of Dec-RVKR-CH2Cl, and cell lysates were assessed for TACE maturation by Western blotting as described above.
A general note: A western blot detects proteins with antibodies after separation by electrophoresis.

In assay [2] the test system is proprotein convertases including furin, PC6B, PC3, PC2, PACE-4 and PC7. Particulars: cited from earlier work.
For assay [3], the system named is TNFα release from MonoMac-1 cells. The assay is described as follows: TNFα release from LPS/PMA-stimulated MonoMac-1 cells (ELISA). Particulars: 22 hrs preincubation, then LPS and PMA 3 hours, FIG. 5D. The class given is cell-based, human. As to the method:
To investigate whether the levels of TACE maturation observed in LoVo transfectants impacts TACE-related activities, we first measured cell-surface p75 TNF receptor expression as a marker for TACE cell-surface activity. Briefly, LoVo NEO and LoVo FUR2 cell samples were labeled with anti-TACE or anti-TNF p75 receptor antibodies (Catlag laboratories, Burlingame, Calif.) and cell fluorescence was analyzed on a FACScan (Becton Dickinson). […] Next, we measured the ability of Dec-RVKR-CH2Cl to block TNFα release from MonoMac-1 cells, a human monocytic cell line known to produce high levels of this cytokine (50). For this, MonoMac-1 cells were preincubated for 22 hrs with varying concentrations of Dec-RVKR-CH2Cl, then 500 ng/ml LPS and 100 ng/ml PMA were added. After 3 hours incubation with PMA and LPS, the supernatants were tested for TNF-α production using a TNF-α-specific ELISA assay (R&D Systems, Minneapolis, Minn.).

For the substance Dec-RVKR-CH2Cl, in assay [1], the TACE maturation result was “further inhibition of TACE maturation”. Moreover, the “inhibition of enzymatic activity of proprotein convertases” value in assay [2] was “efficiently inhibit”. Moreover, in assay [3], the TNFα released entry is “blocked almost completely”.

These data come from patent publication US20040127396A1, “Use of furin and furin-like protease inhibitors in the treatment of inflammatory or matrix remodelling diseases” (priority 2000, published 2004).
